Starred links: 1 amine or outer side, 2 acyl side, 3 side chain; linkers in the order of their positions; H or OH if unused. Non-standard residues stand in square brackets, D forms with d. Residues, ends and D or L forms follow the SMILES beside them. Groups on a side chain read outwards from the residue. *: point of attachment. C18 diacid = O=C(O)CCCCCCCCCCCCCCCCC(=O)*; γGlu = O=C(O)[C@H](CCC(=O)[*:2])N[*:1]; αMeF = C[C@](N)(Cc1ccccc1)C(=O)O; PEG4 = NCCOCCOCCOCCOCCC(=O)O; AEEA = NCCOCCOCC(=O)O; Aib = CC(C)(N)C(=O)O
Tests used:
[1] = biological target: human GLP-1 receptor (hGLP-1R) (Homo sapiens, UniProt P43220); assay: cAMP production (HTRF) in CHO cells expressing hGLP-1R; type: cell-based; design: expressed in transfected cells; conditions: for EC50: Table 7, peptides modified at position 20, cAMP in CHO hGLP-1R cells, geometric mean, read-out: hGLP-1R EC50; for % Relative Potency Ratio: Table 7, % GLP-1R activity relative to GLP-1 / % GlucR activity relative to glucagon
In short: (§1)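 Potency values represent EC50 from 4-parameter logistic curves of HTRF % Delta F signal. Receptor-expressing CHO cells (hGCGR 2×10^5 cells/mL, hGLP-1R 1×10^5 cells/mL) were exposed for 30 min at room temperature before two-step cAMP detection.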

[2] = biological target: human glucagon receptor (hGCGR) (Homo sapiens, UniProt P47871); assay: cAMP production (HTRF) in CHO cells expressing hGCGR; type: cell-based; design: expressed in transfected cells; conditions: Table 7, peptides modified at position 20; cAMP in CHO hGCGR cells; geometric mean; read-out: hGluc-R EC50
In short: as §1

human GLP-1 receptor (hGLP-1R), sequence (P43220 24-463): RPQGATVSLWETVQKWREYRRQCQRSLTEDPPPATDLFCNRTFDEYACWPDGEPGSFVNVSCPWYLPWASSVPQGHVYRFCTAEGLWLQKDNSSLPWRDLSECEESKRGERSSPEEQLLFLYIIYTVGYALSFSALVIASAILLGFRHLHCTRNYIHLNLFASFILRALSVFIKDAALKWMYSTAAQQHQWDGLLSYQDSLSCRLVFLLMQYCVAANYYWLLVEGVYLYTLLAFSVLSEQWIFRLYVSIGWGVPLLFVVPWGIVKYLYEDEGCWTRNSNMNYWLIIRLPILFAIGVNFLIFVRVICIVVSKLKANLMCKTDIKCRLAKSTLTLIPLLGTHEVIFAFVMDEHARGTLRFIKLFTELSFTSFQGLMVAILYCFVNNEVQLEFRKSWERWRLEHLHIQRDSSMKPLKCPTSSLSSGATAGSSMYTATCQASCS
human glucagon receptor (hGCGR), sequence (P47871 26-477): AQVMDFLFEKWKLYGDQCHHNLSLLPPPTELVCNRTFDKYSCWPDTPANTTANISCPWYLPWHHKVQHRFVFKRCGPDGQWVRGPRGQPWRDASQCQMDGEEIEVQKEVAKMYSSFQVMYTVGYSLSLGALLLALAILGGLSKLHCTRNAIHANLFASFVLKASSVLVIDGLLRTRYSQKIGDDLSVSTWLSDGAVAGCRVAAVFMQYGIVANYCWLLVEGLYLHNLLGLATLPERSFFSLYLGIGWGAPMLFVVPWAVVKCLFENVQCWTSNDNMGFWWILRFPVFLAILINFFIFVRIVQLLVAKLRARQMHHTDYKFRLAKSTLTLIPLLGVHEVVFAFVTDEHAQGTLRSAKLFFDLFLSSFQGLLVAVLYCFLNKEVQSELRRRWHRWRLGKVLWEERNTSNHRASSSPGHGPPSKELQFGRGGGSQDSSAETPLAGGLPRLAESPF

Compound	EC50 [1] [nM]	% Relative Potency Ratio [1]	EC50 [2] [nM]
CC(C)C[C@H](NC(=O)[C@H](Cc1c[nH]c2ccccc12)NC(=O)[C@H](CCC(N)=O)NC(=O)[C@@H](NC(=O)[C@H](Cc1ccccc1)NC(=O)[C@H](CC(=O)O)NC(=O)[C@H](CCCCNC(=O)COCCOCCNC(=O)COCCOCCNC(=O)CC[C@H](NC(=O)CCCCCCCCCCCCCCCCC(=O)O)C(=O)O)NC(=O)[C@H](C)NC(=O)[C@H](C)NC(=O)[C@H](CCCNC(=N)N)NC(=O)[C@H](CO)NC(=O)[C@H](CC(=O)O)NC(=O)[C@H](CC(C)C)NC(=O)[C@](C)(Cc1ccccc1)NC(=O)[C@H](CCCCN)NC(=O)[C@H](CO)NC(=O)[C@@H](NC(=O)[C@H](CC(=O)O)NC(=O)[C@H](CO)NC(=O)[C@@H](NC(=O)[C@H](Cc1ccccc1)NC(=O)[C@@H](NC(=O)CNC(=O)[C@H](CCC(N)=O)NC(=O)C(C)(C)NC(=O)[C@@H](N)Cc1c[nH]cn1)[C@@H](C)O)[C@@H](C)O)C(C)C)C(C)C)C(=O)N[C@@H](CCC(=O)O)C(=O)N[C@@H](C)C(=O)NCC(=O)NCC(N)=O [Peptide 310]	0.0564	64.4	1.84
CC(C)C[C@H](NC(=O)[C@H](Cc1c[nH]c2ccccc12)NC(=O)[C@H](CCC(N)=O)NC(=O)[C@@H](NC(=O)[C@H](Cc1ccccc1)NC(=O)[C@H](CC(=O)O)NC(=O)[C@H](CCCCNC(=O)COCCOCCNC(=O)COCCOCCNC(=O)CC[C@H](NC(=O)CCCCCCCCCCCCCCCCC(=O)O)C(=O)O)NC(=O)[C@H](C)NC(=O)[C@H](C)NC(=O)[C@H](CCCNC(=N)N)NC(=O)[C@H](CO)NC(=O)[C@H](CC(=O)O)NC(=O)[C@H](CC(C)C)NC(=O)[C@](C)(Cc1ccccc1)NC(=O)[C@H](CCCCN)NC(=O)[C@H](CO)NC(=O)[C@@H](NC(=O)[C@H](CC(=O)O)NC(=O)[C@H](CO)NC(=O)[C@@H](NC(=O)[C@H](Cc1ccccc1)NC(=O)[C@@H](NC(=O)CNC(=O)[C@H](CCC(N)=O)NC(=O)C(C)(C)NC(=O)[C@@H](N)Cc1c[nH]cn1)[C@@H](C)O)[C@@H](C)O)C(C)C)C(C)C)C(=O)N[C@H](C(=O)N[C@@H](CCC(=O)O)C(=O)N[C@H](C(N)=O)[C@@H](C)O)C(C)C [Peptide 311]	0.0351	26.4	0.469
CC(C)C[C@H](NC(=O)[C@H](Cc1c[nH]c2ccccc12)NC(=O)[C@H](CCC(N)=O)NC(=O)[C@@H](NC(=O)[C@H](Cc1ccccc1)NC(=O)[C@H](CC(=O)O)NC(=O)[C@H](CCCCNC(=O)COCCOCCNC(=O)COCCOCCNC(=O)CC[C@H](NC(=O)CCCCCCCCCCCCCCCCC(=O)O)C(=O)O)NC(=O)[C@H](C)NC(=O)[C@H](CCCNC(=N)N)NC(=O)[C@H](CCCNC(=N)N)NC(=O)[C@H](CO)NC(=O)[C@H](CC(=O)O)NC(=O)[C@H](CC(C)C)NC(=O)[C@](C)(Cc1ccccc1)NC(=O)[C@H](CCCCN)NC(=O)[C@H](CO)NC(=O)[C@H](Cc1ccc(O)cc1)NC(=O)[C@H](CC(=O)O)NC(=O)[C@H](CO)NC(=O)[C@@H](NC(=O)[C@H](Cc1ccccc1)NC(=O)[C@@H](NC(=O)CNC(=O)[C@H](CCC(N)=O)NC(=O)C(C)(C)NC(=O)[C@@H](N)Cc1c[nH]cn1)[C@@H](C)O)[C@@H](C)O)C(C)C)C(=O)N[C@H](C(=O)NCCOCCOCCOCCOCCC(N)=O)C(C)C [Peptide 312] (H-H[Aib]QGTFTSDYSK[αMeF]LDSRRAK([AEEA-AEEA-γGlu-C18 diacid])DFVQWLV[PEG4]-NH2; N-terminus assumed)	0.152	36.1	2.78

— US20250353891A1 (MEDIMMUNE LIMITED, priority 2022, published 2025)
